From the supplement of paper PMC4932681

Experiments:
[1] = tested on: ZR-75-1 Tam1; assay: relative IC50 (midpoint of fitted logistic curve, plateau may be below 50% inhibition; CellTiter-Glo viability); higher = less potent; conditions: 4-OH-tamoxifen in medium 1 µM; 72 h
Description: (§1)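 FIMM FO2B library drugs were plated at 5 concentrations spanning a 10,000-fold range in 384-well plates. Cells were incubated for 72 h at 37 °C and viability was read by CellTiter-Glo, normalised to DMSO (0% inhibition) and 100 µM benzethonium chloride (100% inhibition). IC50 values come from logistic dose-response fits (Breeze pipeline). Tamoxifen-resistant lines and the 'in 1µM tamoxifen' parental arms were tested in medium with 1 µM 4-OH-tamoxifen.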

[2] = tested on: ZR-75-1 Tam2; assay: as above; conditions: 4-OH-tamoxifen in medium 1 µM; 72 h
Description: as §1

[3] = tested on: MCF-7 Tam1; assay: as above; conditions: 4-OH-tamoxifen in medium 1 µM; 72 h
Description: as §1

[4] = tested on: T-47D Tam1; assay: as above; conditions: 4-OH-tamoxifen in medium 1 µM; 72 h
Description: as §1

[5] = tested on: T-47D; assay: as above; conditions: 72 h
Description: as §1

[6] = tested on: BT-474 Tam2; assay: as above; conditions: 4-OH-tamoxifen in medium 1 µM; 72 h
Description: as §1

[7] = tested on: MCF-7; assay: as above; conditions: 72 h
Description: as §1

[8] = tested on: BT-474 Tam1; assay: as above; conditions: 4-OH-tamoxifen in medium 1 µM; 72 h
Description: as §1

[9] = tested on: ZR-75-1; assay: as above; conditions: 72 h
Description: as §1

[10] = tested on: BT-474; assay: as above; conditions: 72 h
Description: as §1

[11] = tested on: ZR-75-1 Tam1; assay: drug sensitivity score (DSS) (DSS (dimensionless)); higher = more sensitive; extreme values may be limits of the assay; conditions: 4-OH-tamoxifen in medium 1 µM; 72 h
Description: (§2)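 FIMM FO2B library drugs were tested at 5 concentrations (10,000-fold range) for 72 h, with CellTiter-Glo viability normalised to DMSO and benzethonium chloride controls. The Drug Sensitivity Score (DSS) is computed from the fitted logistic dose-response curve (area-based; 0 = inactive). Resistant lines and the 'in 1µM tamoxifen' arms were tested in 1 µM 4-OH-tamoxifen.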

[12] = tested on: ZR-75-1 Tam2; assay: as above; conditions: 4-OH-tamoxifen in medium 1 µM; 72 h
Description: as §2

[13] = tested on: MCF-7 Tam1; assay: as above; conditions: 4-OH-tamoxifen in medium 1 µM; 72 h
Description: as §2

[14] = tested on: T-47D Tam1; assay: as above; conditions: 4-OH-tamoxifen in medium 1 µM; 72 h
Description: as §2

[15] = tested on: T-47D; assay: as above; conditions: 72 h
Description: as §2

[16] = tested on: BT-474 Tam2; assay: as above; conditions: 4-OH-tamoxifen in medium 1 µM; 72 h
Description: as §2

[17] = tested on: T-47D Tam2; assay: as above; conditions: 4-OH-tamoxifen in medium 1 µM; 72 h
Description: as §2

[18] = tested on: MCF-7; assay: as above; conditions: 72 h
Description: as §2

[19] = tested on: BT-474 Tam1; assay: as above; conditions: 4-OH-tamoxifen in medium 1 µM; 72 h
Description: as §2

[20] = tested on: ZR-75-1; assay: as above; conditions: 72 h
Description: as §2

[21] = tested on: BT-474; assay: as above; conditions: 72 h
Description: as §2

CC(C)C[C@H](NC(=O)[C@@H](COC(C)(C)C)NC(=O)[C@H](Cc1ccc(O)cc1)NC(=O)[C@H](CO)NC(=O)[C@H](Cc1c[nH]c2ccccc12)NC(=O)[C@H](Cc1cnc[nH]1)NC(=O)[C@@H]1CCC(=O)N1)C(=O)N[C@@H](CCCNC(=N)N)C(=O)N1CCC[C@H]1C(=O)NNC(N)=O [Goserelin acetate]
relative IC50 [1]: > 10 µM | relative IC50 [2]: > 10 µM | relative IC50 [3]: > 10 µM | relative IC50 [4]: > 10 µM | relative IC50 ([5]; 4-OH-tamoxifen in medium 0 µM): > 10 µM | relative IC50 ([5]; 4-OH-tamoxifen in medium 1 µM): > 10 µM | relative IC50 [6]: > 10 µM | relative IC50 ([7]; 4-OH-tamoxifen in medium 0 µM): > 10 µM | relative IC50 ([7]; 4-OH-tamoxifen in medium 1 µM): > 10 µM | relative IC50 [8]: > 10 µM | relative IC50 ([9]; 4-OH-tamoxifen in medium 0 µM): > 10 µM | relative IC50 ([9]; 4-OH-tamoxifen in medium 1 µM): > 10 µM | relative IC50 ([10]; 4-OH-tamoxifen in medium 0 µM): > 10 µM | relative IC50 ([10]; 4-OH-tamoxifen in medium 1 µM): > 10 µM | drug sensitivity score [11]: 0 | drug sensitivity score [12]: 0 | drug sensitivity score [13]: 0 | drug sensitivity score [14]: 0 | drug sensitivity score ([15]; 4-OH-tamoxifen in medium 0 µM): 0 | drug sensitivity score ([15]; 4-OH-tamoxifen in medium 1 µM): 0 | drug sensitivity score [16]: 0 | drug sensitivity score [17]: 0.105 | drug sensitivity score ([18]; 4-OH-tamoxifen in medium 0 µM): 0 | drug sensitivity score ([18]; 4-OH-tamoxifen in medium 1 µM): 0 | drug sensitivity score [19]: 0 | drug sensitivity score ([20]; 4-OH-tamoxifen in medium 0 µM): 0 | drug sensitivity score ([20]; 4-OH-tamoxifen in medium 1 µM): 0 | drug sensitivity score ([21]; 4-OH-tamoxifen in medium 0 µM): 0 | drug sensitivity score ([21]; 4-OH-tamoxifen in medium 1 µM): 0
